Assay results taken from PubChem BioAssay AID180 (DTP/NCI, 2004).
Values joined by “and” are separate entries in the source; they are usually repeats but may differ in a detail not shown here. Equal values may be shown once.

System: BDF1 mice, Adenocarcinoma 755 s.c., tumor weight T/C
Test: NCI In Vivo Anticancer Drug Screen. Data for tumor model Adenocarcinoma 755 (subcutaneous) in B6D2F1 (BDF1) mice
Details: endpoint: mean tumor weight, higher = larger tumour
How it was run: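 Tumor-bearing mice receive test compound while controls get vehicle alone. Antitumor effect is scored from survival or tumor dimensions as a T/C quotient.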

[1] = dose: 12.5 mg/kg/injection, schedule: Q01DX011 (ip), vehicle: methylcellulose (MC)
[2] = dose: 25.0 mg/kg/injection, schedule: Q01DX011 (ip), vehicle: methylcellulose (MC)
[3] = dose: 50.0 mg/kg/injection, schedule: Q01DX011 (ip), vehicle: methylcellulose (MC)

COB1OB(OC)OB(OC)O1
T/C (dose: 18.75 mg/kg/injection, schedule: Q01DX011 (ip), vehicle: water): 78 % of control
T/C (dose: 250.0 mg/kg/injection, schedule: Q#A X022 (oral), vehicle: water): 64 % of control
T/C (dose: 335.0 mg/kg/injection, schedule: Q01DX011 (ip), vehicle: other): 51 % of control
T/C (dose: 375.0 mg/kg/injection, schedule: Q01DX011 (im), vehicle: other): 59 % of control
T/C (dose: 375.0 mg/kg/injection, schedule: Q01DX011 (ip), vehicle: other): 75 % of control
T/C (dose: 375.0 mg/kg/injection, schedule: Q01DX011 (ip), vehicle: water): 61 % of control
T/C (dose: 375.0 mg/kg/injection, schedule: Q01DX011 (sc), vehicle: other): 81 % of control
T/C (dose: 450.0 mg/kg/injection, schedule: Q#A X022 (sc), vehicle: other): 40 % of control
T/C (dose: 500.0 mg/kg/injection, schedule: Q01DX011 (ip), vehicle: other): 41 % of control and 51 % of control
T/C (dose: 500.0 mg/kg/injection, schedule: Q01DX011 (oral), vehicle: other): 97 % of control and 75 % of control
T/C (dose: 500.0 mg/kg/injection, schedule: Q#A X022 (oral), vehicle: water): 43 % of control
T/C (dose: 600.0 mg/kg/injection, schedule: Q01DX011 (oral), vehicle: other): 53 % of control
T/C (dose: 600.0 mg/kg/injection, schedule: Q## X012 (oral), vehicle: other): 109 % of control
T/C (dose: 600.0 mg/kg/injection, schedule: Q#A X022 (im), vehicle: other): 28 % of control
T/C (dose: 600.0 mg/kg/injection, schedule: Q#A X022 (sc), vehicle: other): 74 % of control
T/C (dose: 750.0 mg/kg/injection, schedule: Q01DX011 (im), vehicle: other): 65 % of control and 74 % of control
T/C (dose: 750.0 mg/kg/injection, schedule: Q01DX011 (ip), vehicle: other): 43 % of control and 47 % of control and 55 % of control
T/C (dose: 750.0 mg/kg/injection, schedule: Q01DX011 (ip), vehicle: water): 20 % of control
T/C (dose: 750.0 mg/kg/injection, schedule: Q01DX011 (oral), vehicle: other): 71 % of control
T/C (dose: 750.0 mg/kg/injection, schedule: Q02DX006 (ip), vehicle: other): 71 % of control
T/C (dose: 750.0 mg/kg/injection, schedule: Q## X006 (ip), vehicle: other): 78 % of control
T/C (dose: 750.0 mg/kg/injection, schedule: Q#A X022 (oral), vehicle: water): 7 % of control and 21 % of control
T/C (dose: 750.0 mg/kg/injection, schedule: Q#A X022 (sc), vehicle: other): 43 % of control
T/C (dose: 800.0 mg/kg/injection, schedule: Q01DX011 (im), vehicle: other): 77 % of control
T/C (dose: 800.0 mg/kg/injection, schedule: Q#A X022 (im), vehicle: other): 50 % of control
T/C (dose: 1000.0 mg/kg/injection, schedule: Q01DX011 (im), vehicle: other): 48 % of control and 56 % of control
T/C (dose: 1000.0 mg/kg/injection, schedule: Q01DX011 (ip), vehicle: other): 14 % of control and 37 % of control
T/C (dose: 1000.0 mg/kg/injection, schedule: Q01DX011 (oral), vehicle: saline): 47 % of control
T/C (dose: 1000.0 mg/kg/injection, schedule: Q01DX011 (oral), vehicle: water): 37 % of control
T/C (dose: 1000.0 mg/kg/injection, schedule: Q02DX006 (ip), vehicle: other): 45 % of control
T/C (dose: 1000.0 mg/kg/injection, schedule: Q## X006 (ip), vehicle: other): 63 % of control
T/C (dose: 1000.0 mg/kg/injection, schedule: Q## X012 (oral), vehicle: other): 84 % of control
T/C (dose: 1000.0 mg/kg/injection, schedule: Q#A X022 (oral), vehicle: water): 8 % of control
T/C (dose: 1000.09 mg/kg/injection, schedule: Q01DX011 (oral), vehicle: other): 36 % of control
T/C (dose: 1125.0 mg/kg/injection, schedule: Q01DX011 (ip), vehicle: other): 43 % of control
T/C (dose: 1200.0 mg/kg/injection, schedule: Q01DX011 (im), vehicle: other): 22 % of control
T/C (dose: 1250.0 mg/kg/injection, schedule: Q01DX011 (sc), vehicle: other): 38 % of control
T/C (dose: 1250.0 mg/kg/injection, schedule: Q#A X022 (oral), vehicle: water): 2 % of control and 10 % of control
T/C (dose: 1500.0 mg/kg/injection, schedule: Q01DX011 (im), vehicle: other): 16 % of control and 30 % of control
T/C (dose: 1500.0 mg/kg/injection, schedule: Q01DX011 (ip), vehicle: water): 6 % of control
T/C (dose: 1500.0 mg/kg/injection, schedule: Q01DX011 (oral), vehicle: saline): 16 % of control
T/C (dose: 1500.0 mg/kg/injection, schedule: Q01DX011 (oral), vehicle: water): 16 % of control
T/C (dose: 1500.0 mg/kg/injection, schedule: Q01DX011 (sc), vehicle: other): 22 % of control
T/C (dose: 1500.0 mg/kg/injection, schedule: Q02DX006 (ip), vehicle: other): 37 % of control
T/C (dose: 1500.0 mg/kg/injection, schedule: Q## X006 (ip), vehicle: other): 58 % of control
T/C (dose: 1500.0 mg/kg/injection, schedule: Q## X012 (oral), vehicle: other): 51 % of control
T/C (dose: 2000.0 mg/kg/injection, schedule: Q01DX011 (oral), vehicle: saline): 14 % of control
T/C (dose: 2000.0 mg/kg/injection, schedule: Q01DX011 (oral), vehicle: water): 7 % of control
T/C (dose: 2000.0 mg/kg/injection, schedule: Q## X012 (oral), vehicle: other): 15 % of control
T/C (dose: 2500.0 mg/kg/injection, schedule: Q01DX011 (oral), vehicle: saline): 4 % of control
T/C (dose: 2500.0 mg/kg/injection, schedule: Q## X012 (oral), vehicle: other): 22 % of control

CN(Cc1ccccc1)c1ncnc2[nH]ncc12
T/C [1]: 42 % of control
T/C [2]: 62 % of control
T/C [3]: 10 % of control
T/C (dose: 100.0 mg/kg/injection, schedule: Q01DX011 (ip), vehicle: methylcellulose (MC)): 2 % of control

O=C(CCCl)N1CCN(c2ccccc2)CC1
T/C [2]: 51 % of control
T/C (dose: 75.0 mg/kg/injection, schedule: Q01DX011 (ip), vehicle: methylcellulose (MC)): 61 % of control
T/C (dose: 225.0 mg/kg/injection, schedule: Q01DX011 (ip), vehicle: methylcellulose (MC)): 60 % of control

CCCCCCCCOP(=O)(N1CC1)N1CC1
T/C (dose: 0.1 mg/kg/injection, schedule: Q01DX011 (ip), vehicle: saline): 75 % of control and 79 % of control
T/C (dose: 0.2 mg/kg/injection, schedule: Q01DX011 (ip), vehicle: saline): 65 % of control and 80 % of control
T/C (dose: 1.0 mg/kg/injection, schedule: Q01DX011 (ip), vehicle: saline): 29 % of control
T/C (dose: 2.0 mg/kg/injection, schedule: Q01DX011 (ip), vehicle: saline): 57 % of control and 66 % of control
T/C (dose: 4.5 mg/kg/injection, schedule: Q01DX011 (ip), vehicle: saline): 56 % of control and 66 % of control

Cn1c(N)cc(=O)[nH]c1=S
T/C (dose: 3.5 mg/kg/injection, schedule: Q01DX011 (ip), vehicle: methylcellulose (MC)): 98 % of control
T/C (dose: 7.0 mg/kg/injection, schedule: Q01DX011 (ip), vehicle: methylcellulose (MC)): 40 % of control
T/C (dose: 15.0 mg/kg/injection, schedule: Q01DX011 (ip), vehicle: methylcellulose (MC)): 65 % of control
T/C (dose: 30.0 mg/kg/injection, schedule: Q01DX011 (ip), vehicle: methylcellulose (MC)): 79 % of control
T/C (dose: 60.0 mg/kg/injection, schedule: Q01DX011 (ip), vehicle: methylcellulose (MC)): 29 % of control

CCC(=O)c1cc2c(cc1CC)C(C)(C)CCC2(C)C
T/C (dose: 100.0 mg/kg/injection, schedule: Q01DX011 (ip), vehicle: carboxymethylcellulose (CMC)): 53 % of control and 63 % of control

CCSc1ncnc2c1ncn2C1OC(CO)C(O)C1O (centres undefined)
T/C (dose: 6.25 mg/kg/injection, schedule: Q01DX011 (ip), vehicle: saline): 96 % of control
T/C [1]: 53 % of control
T/C (dose: 12.5 mg/kg/injection, schedule: Q01DX011 (ip), vehicle: saline): 49 % of control
T/C [2]: 27 % of control
T/C (dose: 25.0 mg/kg/injection, schedule: Q01DX011 (ip), vehicle: saline): 14 % of control
T/C [3]: 10 % of control
T/C (dose: 50.0 mg/kg/injection, schedule: Q01DX011 (ip), vehicle: saline): 4 % of control

CCCn1cnc2c(SCc3ccccn3)nc(N)nc21
T/C (dose: 3.6 mg/kg/injection, schedule: Q01DX011 (ip), vehicle: methylcellulose (MC)): 12 % of control
T/C (dose: 7.25 mg/kg/injection, schedule: Q01DX011 (ip), vehicle: methylcellulose (MC)): 4 % of control
T/C (dose: 15.5 mg/kg/injection, schedule: Q01DX011 (ip), vehicle: methylcellulose (MC)): 1 % of control

O=P(Oc1ccccc1)(OP(=O)(Oc1ccccc1)N(CCCl)CCCl)N(CCCl)CCCl (centres undefined)
T/C (dose: 25.0 mg/kg/injection, schedule: Q01DX011 (ip), vehicle: other): 82 % of control
T/C (dose: 50.0 mg/kg/injection, schedule: Q01DX011 (ip), vehicle: other): 66 % of control

NC(CCCC(N)C(=O)O)C(=O)O (centres undefined)
T/C (dose: 200.0 mg/kg/injection, schedule: Q01DX011 (ip), vehicle: other): 75 % of control
T/C (dose: 400.0 mg/kg/injection, schedule: Q01DX011 (ip), vehicle: other): 77 % of control
T/C (dose: 600.0 mg/kg/injection, schedule: Q01DX011 (ip), vehicle: other): 93 % of control
